Measurements published in PMC12040169 (PLOS Biology, 2025).

Test: in vitro
Settings: human, hela cells, % viability

| Compound | viability at 28.5 h, 10 µM [%] | viability at 28.5 h, 10 µM (bulk resorufin, single well) [%] |
| --- | --- | --- |
| O=C(CN1CCN(C2CCCC2)C(=O)C1)N1CCCc2ccccc21 [CBK282132] | 81.7 | – |
| Cc1nonc1/N=N/N(CC(=O)N1CCOCC1)c1nonc1C [CBK262399] | 103 | – |
| Cn1c(SCC(=O)Nc2ccc(Oc3ccc(Cl)cc3)cc2)nnc1-c1ccncc1 [CBK269654] | 95.6 | – |
| O=C1CC2(C(=O)N1Cc1ccccc1)C(=O)N(Cc1csc(-c3ccccc3)n1)c1ccccc12 (stereo not shown) [CBK075673] | 112 | – |
| CCn1cc(C(=O)N2CCc3sccc3C2)c(=O)c2ccc(C)nc21 [CBK305006] | 94.3 | – |
| S=C(NCc1ccc(Cl)c(Cl)c1)Nc1ccncc1 [CBK016649] | 84.9 | – |
| CC1CCCCN1S(=O)(=O)c1ccc(NCCC(=O)c2ccc(Cl)cc2)cc1 (stereo not shown) [CBK268529] | 113 | – |
| Cc1cc(OCC(=O)Nc2ccccc2N2CCN(S(C)(=O)=O)CC2)ccc1Cl [CBK269410] | 103 | – |
| Cc1ccc(N(Cc2cc3ccccc3nc2O)C(=O)c2cccnc2)cc1 [CBK265442] | 85.5 | – |
| O=C(Cn1cccn1)NC(Cc1ccsc1)c1ccccn1 (stereo not shown) [CBK285284] | 92.8 | – |
| CC(=O)NCCSc1cncc(NC(C)C)n1 [CBK105291] | 84.9 | – |
| CC(C)NC(=O)N1Cc2nc[nH]c2C[C@H]1c1nc(-c2ccc3c(c2)OCO3)no1 [CBK289001] | 94.5 | – |
| COc1ccc(N2CCN(c3cc(C)nc4cc(-c5nccn5C)nn34)CC2)cc1 [CBK286187] | 87.8 | – |
| COc1ccc(CNC(N)=O)cc1 [CBK013588] | 104 | – |
| Cc1ccc(NCc2nc3ccccc3n2Cc2ccccc2)cc1C [CBK263756] | 98.4 | – |
| OCCN1CCN(C2CCN(Cc3ccccc3Cl)CC2)CC1 [CBK264710] | 90.1 | – |
| CCOc1ccc(Cl)cc1CN(C)C(=O)NC(c1ncnn1C)C(C)C (stereo not shown) [CBK307110] | 80.5 | – |
| Cc1cc(C)n(-c2ccc3nnc(CCC(=O)O)n3n2)n1 [CBK307616] | 97 | – |
| CC1(C)[C@H](Cc2cc(CO)on2)C[C@@H]1NS(=O)(=O)c1ccccc1 [CBK289234] | 86 | – |
| C=CCn1c(Cc2csc(NC(=O)c3cccc(Cl)c3)n2)n[nH]c1=S [CBK295314] | 98.3 | – |
| Cc1ccccc1-c1cc(C(=O)N(C)C)c2cnn(C(C)C)c2n1 [CBK306245] | 98.6 | – |
| CC1CCC(C(N)=O)CN1c1cc(=O)n2ccccc2n1 (stereo not shown) [CBK304835] | 104 | – |

| Compound | viability at 28.5 h, 10 µM [%] | viability at 28.5 h, 10 µM (bulk resorufin, single well) [%] |
| --- | --- | --- |
| O=C(NCc1cccs1)c1ccccc1Nc1cccc(C(F)(F)F)c1 [CBK149557] | 104 | – |
| Cc1nc[nH]c1CN(Cc1cccc(F)c1)Cc1ccco1 [CBK282493] | 75.7 | – |
| O=C(O)CCc1ccc(-c2ccc(F)cc2)n1NC(=O)c1ccco1 [CBK268853] | 90.7 | – |
| Cc1cccnc1C(NC(=O)C1CCN(S(=O)(=O)c2cccs2)CC1)c1cccs1 (stereo not shown) [CBK060147] | 111 | – |
| c1ccc(C(Oc2nccnc2-c2ccncc2)c2ccccc2)cc1 [CBK106728] | 89.1 | – |
| O=C(O)CCNC(=O)c1ccc(NS(=O)(=O)c2ccc(C3CCCCC3)cc2)cc1 [CBK296991] | 96.1 | – |
| FC(F)(F)c1ccc(OCCOc2ccccc2)nc1 [CBK115829] | 80.4 | – |
| CC(C)[C@H](CO)Nc1nccnc1-c1cccc(O)c1 [CBK037542] | 96.1 | – |
| Cc1ccc(Cc2cnc(NC(=O)NC3CCOCC3)s2)cc1Cl [CBK304440] | 82.2 | – |
| Nn1c(SCC(=O)Nc2cccc3ccccc23)nnc1-c1ccccc1Cl [CBK266080] | 97.7 | – |
| Nc1nc(-c2ccc(F)cc2)c2c(n1)-c1ccccc1C2=O [CBK287881] | 114 | – |
| Cc1ccccc1-c1ccccc1CC1(C(N)=O)CCN(C(=O)c2cccc(F)c2)CC1 [CBK285726] | 94.2 | – |
| CN1CCC(C(=O)Nc2cnc(-c3cccc(OC(F)(F)F)c3)c(-c3cccnc3)n2)CC1 [CBK036882] | 108 | – |
| CCc1nn(CC(=O)N2CCC(C)CC2)c(=O)c2cc3occc3n12 [CBK283675] | 76.4 | – |
| CCNc1cc2ccccc2c(-c2ccc3c(c2)OCCCO3)n1 [CBK089641] | 99.2 | – |
| N#C/C(=C/c1ccc(-c2ccc(S(N)(=O)=O)cc2)o1)S(=O)(=O)c1ccc(Cl)cc1 [CBK266383] | 110 | – |
| CN(C)S(=O)(=O)NC1CC(C)(C)Cc2c1cnn2-c1ccc(F)cc1 (stereo not shown) [CBK306646] | 112 | – |
| NS(=O)(=O)c1ccc(CCNC(=O)c2ccc3c(c2)OCCO3)cc1 [CBK268128] | 104 | – |
| COCOc1ccc(-c2ncc(OC)nc2NC(=O)c2cc3ccccc3s2)cc1 [CBK145250] | 103 | – |
| CCSc1nnc(-c2cccc(C)c2)n1CC1CCCCC1 [CBK085419] | 96.3 | – |
| CCOc1c(CNCc2ccccn2)cccc1OC [CBK268104C] | 96.9 | – |
| O=S(=O)(Nc1nc2c(s1)CCCC2)c1cc(Cl)ccc1Cl [CBK096578] | 98.7 | – |

| Compound | viability at 28.5 h, 10 µM [%] | viability at 28.5 h, 10 µM (bulk resorufin, single well) [%] |
| --- | --- | --- |
| COc1nccc(N2CCC3(CCCN(CC4CCC4)C3=O)C2)c1C#N (stereo not shown) [CBK306861] | 84.3 | – |
| c1csc(-c2cncc(NCCc3ccncc3)n2)c1 [CBK065797] | 105 | – |
| CC(C)(C)OCc1[nH]n(CCc2ccccc2)c(=O)c1Cc1c(Cl)cccc1Cl [CBK091452] | 89.3 | – |
| COCCNC(=O)c1ccc(-c2ccc3c(c2)OCO3)nc1N(C)C [CBK106050] | 101 | – |
| COC(=O)c1c(C)n(CCCNc2ccc([N+](=O)[O-])cc2Cl)c2ccc(O)cc12 [CBK268363] | 86.2 | – |
| CN(Cc1cn(-c2ccccc2)nc1-c1ccccc1)C(=O)CCc1n[nH]c(=S)[nH]c1=O [CBK295630] | 102 | – |
| CC(C)n1cc(C(=O)N2CCCCC2c2nc3ccccc3[nH]2)cn1 (stereo not shown) [CBK283679] | 102 | – |
| CCCn1cc(C(=O)NCC2CCN(c3ccccc3F)C2)c(C)n1 (stereo not shown) [CBK304634] | 79 | – |
| Nc1nc(O)cc(C2CCN(CCOc3ccccc3F)C2)n1 (stereo not shown) [CBK304726] | 102 | – |
| COC(=O)CCn1c(-c2ccncc2)cc2cccnc21 [CBK282592] | 65.2 | – |
| Nc1nc2cc3c(cc2[nH]1)OCO3 [CBK023191] | 96.6 | – |
| CCOc1ccc(-n2nnnc2SCC(=O)c2ccc(Cl)c(Cl)c2)cc1 [CBK141942] | 88.7 | – |
| O=C(CCC(=O)c1ccc2c(c1)OCCO2)OCC(=O)c1ccc(Cl)c(Cl)c1 [CBK264825] | 87.5 | – |
| CC(=O)Nc1ccc(S(N)(=O)=O)cc1Cl [CBK028784] | 109 | – |
| COc1ccc(Cc2nc(CC3CCCOC3)n(CC(F)(F)F)n2)cc1 (stereo not shown) [CBK307140] | 112 | – |
| Cn1nc(-c2ccc(S(=O)(=O)Nc3nc(=O)[nH]cc3F)s2)cc1C(F)(F)F [CBK067574] | 96.8 | – |
| O=C1CCCN1CCCNC(=O)C1(c2ccccc2)COc2ccccc21 (stereo not shown) [CBK017653] | 92.3 | – |
| Clc1cncc(N2CCCC2)n1 [CBK083595] | 118 | – |
| Clc1cncc(N2CCNCC2)c1 [CBK022556F] | – | 117 |
| CNS(=O)(=O)c1cc(C(=O)NC2CCCc3ccccc32)n(C)c1 (stereo not shown) [CBK305048] | 103 | – |
| COc1ccc(C)cc1S(=O)(=O)N(CC(=O)O)c1ccc(Cl)c(Cl)c1 [CBK269095] | 104 | – |
| COc1cc2[nH]c(=S)n(CCc3c[nH]cn3)c(=O)c2cc1OC [CBK268333] | 102 | – |

| Compound | viability at 28.5 h, 10 µM [%] | viability at 28.5 h, 10 µM (bulk resorufin, single well) [%] |
| --- | --- | --- |
| C#CCn1cc(CN2CCc3c(nc(C)[nH]c3=O)C2)c2ccccc21 [CBK282382] | 102 | – |
| O=C1CO[C@H]2CN(Cc3ncc[nH]3)C[C@H]2N1Cc1ccncc1 [CBK289259] | 108 | – |
| CCN1CCN(C(=O)CN(C)S(=O)(=O)c2ccc(OC)c(Cl)c2)CC1 [CBK268091] | 93.2 | – |
| CC(C)(CNC(=O)c1ccc(=O)n(CC(=O)NC2CCCCC2)c1)c1ccc(F)cc1 [CBK285984] | 83.9 | – |
| COC(=O)C(Nc1cccc(Cl)c1)(c1cc(OC)c(O)c(OC)c1)C(F)(F)F (stereo not shown) [CBK009591] | 96.6 | – |
| c1cc(CNCCN2CCOCC2)cs1 [CBK001894] | 105 | – |
| O=C(Nc1ccc(Cl)cc1)N1CCN(c2ccccc2)CC1 [CBK155188] | 101 | – |
| COc1ccccc1CC(=O)N1CCC(Cc2cccc(-c3cccs3)c2)(C(N)=O)CC1 [CBK285743] | 93.3 | – |
| COc1ccccc1-c1cc([C@H]2CN3CC[C@H]2C[C@@H]3CNC(=O)c2ccco2)nc(C)n1 [CBK289119] | 105 | – |
| O=C(c1cccnc1)N1C[C@@H]2OCC(=O)N(Cc3ccc(F)cc3)[C@@H]2C1 [CBK289691] | 96.1 | – |
| CC(C)N(Cc1cnn(C)c1)C(=O)c1cc(C2CC2)nc2ccccc12 [CBK305325] | 103 | – |
| O=C(O)Cn1cc(C(C(=O)O)N2CCN(c3ccccc3)CC2)c2ccccc21 (stereo not shown) [CBK286625] | 78.1 | – |
| NC1CCCN(C(=O)c2ccc(Oc3cccc(Br)c3)nc2)C1 (stereo not shown) [CBK304747] | 92.6 | – |
| CC(C)C1OC(N2CCOCC2)=NC1=O (stereo not shown) [CBK070384] | 92.3 | – |
| O=c1ccc2ccc(-c3ccc(OC(F)(F)F)cc3)nc2[nH]1 [CBK073720] | 98.8 | – |
| CN1CCN(C(=O)CNS(=O)(=O)c2ccc3ccccc3c2)CC1 [CBK042205] | 99.3 | – |
| O=C(Nc1sc2c(c1C(=O)NCc1cccnc1)CCCC2)c1sc2ccccc2c1Cl [CBK266334] | 95.9 | – |
| COc1cc(-c2nccnc2NCc2ccccn2)cc(OC)c1OC [CBK036936] | 96.8 | – |
| COc1cc(Nc2cncc(-c3ccc(O)cc3)n2)c(Cl)cc1C(=O)NCC(F)(F)F [CBK126470] | 82.9 | – |
| COc1ccc(CCN(C(C)=O)C2CC(=O)N(c3ccccc3)C2=O)cc1OC (stereo not shown) [CBK262349] | 89.5 | – |
| CC1CCc2c(sc(NC(=O)COc3ccccc3)c2C(=O)Nc2ccccc2Cl)C1 (stereo not shown) [CBK263044] | 101 | – |
| CN1C[C@@H](NS(C)(=O)=O)C[C@H]1c1nc(-c2ccc3c(c2)OCO3)no1 [CBK288875] | 114 | – |
